# Results: paper PMC11788964, “Clinical Pharmacology and Approach to Dose Selection of Emestedastat, a Novel Tissue Cortisol Synthesis Inhibitor for the Treatment of Central Nervous System Disease” (Clinical Pharmacology in Drug Development, 2025)
# Experiments:
# [1] = test system: AD population; design: method as in PMID 24418055; conditions: 12‐week Phase 2 trial in AD; cited from earlier work
# [2] = test system: mice with age‐associated cognitive impairment; murine Tg2576 model of AD; conditions: aged mice and murine Tg2576 model of AD; cited from earlier work
# [3] = test system: brain 11β‐HSD1; conditions: aged mice and murine Tg2576 model of AD; cited from earlier work
# [4] = test system: healthy older men; patients with type 2 diabetes mellitus; design: method as in PMID 15071189; conditions: cited from earlier work
# [5] = test system: patients with AD; design: method as in PMID 34679364; conditions: 10 mg daily 12 weeks, elevated plasma pTau181; cited from earlier work
# [6] = test system: cognitively normal, older participants; assay: XanaHES (ACW0003) computerized cognitive test battery (Cogstate); assay type: in vivo, human; conditions: 20 mg daily, over 12 weeks
# Procedure: The next trial, XanaHES (ACW0003) was a double‐blind, placebo‐controlled, Phase 1b trial in cognitively normal, older participants (age range, 50‐75 years) at a dose of 20 mg daily for 12 weeks. The population of 42 participants comprised 30 receiving emestedastat and 12 receiving placebo. The objectives were to assess safety, PK, HPA PD, and cognition. The computerized cognitive test battery (CTB; Cogstate) assessed attention, working memory, and episodic memory.
# (§1) In both XanaHES and XanaMIA‐DR, cognition was assessed using a computerized CTB (Cogstate). The CTB comprised tests indexing key domains of cognition including processing speed, attention, visual learning, working memory, psychomotor function, and executive function. In XanaHES, least squares mean differences between the emestedastat 20 mg treatment group and the placebo group were estimated and tested at a 2‐sided 0.05 significance level. No adjustments for α were made for multiple comparisons. In XanaMIA‐DR, standardized effect sizes, equivalent to a Z score, were calculated with a threshold for clinically meaningful effect set at 0.9, representing a 1‐sided 80% confidence interval (CI).
# (§2) The individual tests from the Cogstate battery were combined into 2 composite scores indexing: • · “Attention Composite” of attention and working memory (Detection Test, Identification Test, One Back Test) • · “Memory Composite” of episodic memory and learning (One Card Learning Test, Continuous Paired Associate Learning Test, and Continuous Paired Associate Learning Test‐Delayed Recall).
# (§3) To compute the Attention and Memory Composite scores, each of the component‐test scores were Z transformed, the directionality of scores was reversed so that higher scores indicate better performance, and the component Z scores were averaged.
# [7] = test system: 11β‐HSD1; design: method as in PMID 38250767; conditions: 5 mg; cited from earlier work
# [8] = Population pharmacokinetic (PPK) analysis of MAD, XanADu and XanaHES trials; assay type: in vivo, human
# Procedure: PPK analysis was performed on data from 3 trials: the MAD trial in volunteers; the XanADu trial in patients with AD; and XanaHES in older, cognitively normal participants. In total, 138 participants (18 healthy volunteers, 90 patients with AD, and 30 healthy older participants) contributed a total of 1087 evaluable plasma concentration observations.
# The analyses were performed using NONMEM Version 7.3.0 (ICON plc). PK parameter relationships were sought with the covariates body weight, age, sex, and healthy versus AD. The selected PPK model was a one‐compartment model with first‐order absorption and elimination. It was successfully fitted using Monte Carlo Importance Sampling Expectation Maximization estimation and included separate relative bioavailability terms for the Day 1 PK data from the XanADu and XanaHES trials. The M3 method was used to permit the inclusion of the below‐the‐limit quantification concentrations in the analysis. The model estimated between‐subject variation in all 4 parameters and used a full ω block to estimate the covariance between parameters. The model included a weight effect on the apparent volume of distribution.
# [9] = test system: healthy older participants; assay: XanaMIA‐DR (ACW0005) computerized cognitive test battery (Cogstate); assay type: in vivo, human
# Procedure: XanaMIA‐DR (ACW0005) was a double‐blind placebo‐controlled Phase 1b trial in 107 healthy older participants (age range, 50‐80 years) at doses of 5 and 10 mg daily for 6 weeks. The principal objective of XanaMIA‐DR was to assess whether the improvements in cognition observed in XanaHES were also present at the lower doses of 5 and 10 mg daily.
# as §1, §2, §3
# [10] = SAD and MAD trials of up to 35 mg twice daily; cited from earlier work
# [11] = test system: peripheral 11β‐HSD1; design: method as in PMID 28012176; conditions: all doses in the MAD trial (10 to 35 mg twice daily); cited from earlier work
# [12] = Safety and tolerability in clinical trials; assay type: in vivo, human
# Excerpt: All trials were approved by a local ethics committee/institutional review board, and all participants gave written informed consent. Endocrinology data and a population PK (PPK) analysis are available from the following trials: • · A single‐ascending‐dose (SAD) trial in healthy volunteers (RD 656/25368)[25] • · A multiple‐ascending‐dose (MAD) trial in healthy volunteers, including a small subtrial measuring CSF concentrations (ACW0001)[25] • · A positron emission tomography (PET) trial in cognitively normal, older volunteers and patients with AD (ACW0004)[26] • · Two trials in cognitively normal, older volunteers examining safety and effects on cognition (Trials ACW0003, NCT03830762 and ACW0005; and NCT04983368) • · A PPK analysis from the healthy volunteer and patient trials • · HPA axis endocrinology data from the volunteer and patient trials • · A trial of efficacy and safety in patients with AD (ACW0002; NCT02727699)[27]
# Initially, the SAD and MAD trials studied doses up to 35 mg twice daily and assessed PK and HPA PD.
# [13] = design: method as in PMID 28012176; conditions: cited from earlier work
smiles,measurement,setting,value
CC(C)(C(=O)NC1C2CC3CC1CC(C(N)=O)(C3)C2)N1CCN(c2ccc(C(F)(F)F)cn2)CC1 (stereo not drawn) [ABT‐384],therapeutic outcome in AD,[1],therapeutic failure
O=C(c1csc(-c2cn[nH]c2)c1)N1CCC(F)(c2ccccc2Cl)CC1 [UE2316],amyloid‐β in the cortex,[2],reduction in amyloid‐β in the cortex
same,memory,[2],improved memory
same,inhibition of 11β‐HSD1 in the brain,[3],approximately 30%
CC1(C)[C@@H](OC(=O)CCC(=O)O)CC[C@]2(C)[C@H]3C(=O)C=C4[C@@H]5C[C@@](C)(C(=O)O)CC[C@]5(C)CC[C@@]4(C)[C@]3(C)CC[C@@H]12 [carbenoxolone],verbal fluency test (executive function),"[4]; 10 healthy older (55‐75 years) men, 4 weeks",improved
same,verbal memory in the Rey Auditory Verbal Learning Test,[4]; 12 patients with type 2 diabetes mellitus,improved verbal memory
"O=C(c1csc(-c2cn[nH]c2)c1)N1C2CCC1CC(O)(c1ncccn1)C2 (stereo not drawn) [emestedastat, (5‐(1H‐Pyrazol‐4‐yl)thiophen‐3‐yl)(3‐hydroxy‐3‐(pyrimidin‐2‐yl)‐8 azabicyclo[3.2.1]octan‐8‐yl) methanone]","Cohen's d, AD COMposite Scores",[5],< 0.2
same,"Cohen's d, ADAS‐Cog14",[5],< 0.2
same,"Cohen's d, Clinical Dementia Ratio—Sum of Boxes compared to placebo",[5],0.41
same,"Cohen's d, Mini‐Mental State Examination",[5],< 0.2
same,"Cohen's d, Neuropsychological Test Battery‐Executive domain",[5],0.26
same,"One Card Learning Test, Continuous Paired Associate Learning Test and Delayed Recall, vs placebo",[6],no difference between groups
same,least squares mean difference on the One Back Test compared to placebo,[6],−0.06 U
same,least squares mean difference on the detection test compared to placebo,[6],−0.04 U
same,least squares mean difference on the identification test compared to placebo,[6],−0.03 U
same,"Cohen's d, One Back Test",[6]; vs placebo,0.98
same,"Cohen's d, detection test",[6]; vs placebo,0.49
same,"Cohen's d, identification test",[6]; vs placebo,0.65
same,occupancy in the cerebellum relative to cortex,[7],lower (by about half)
same,linearity of PK,[8]; dose range 10‐70 mg,linear
same,"ALAG (absorption lag time), estimate",[8]; final PPK model,0.900 h
same,"ka (absorption rate), estimate",[8]; final PPK model,1.74 h⁻¹
same,"CL/F (apparent clearance), estimate","[8]; final PPK model, 138 participants",4.76 L/h
same,"WT on V/F (covariate), estimate","[8]; final PPK model, weight effect on V/F",1.00
same,Vd/F,"[8]; human, plasma, oral, final PPK model, read-out: V/F (apparent volume of distribution), estimate",64.3 L
same,half-life,"[8]; human, plasma, oral, from kel = CL/V and t1/2 = ln(2)/Kel, read-out: mean elimination half‐life (95% CI)",9.36 h
same,treatment effect in the tests making up the Memory Composite,"[9]; 5 and 10 mg daily, 6 weeks",no evidence of any treatment effect
same,improvement on the identification test (visual attention) compared to placebo,"[9]; 5‐mg treatment group, 6 weeks",−0.018 U
same,"Cohen's d, identification test","[9]; 5‐mg treatment group, vs placebo",0.32
same,maximum tolerated dose,[10],had not been established
same,tolerability,[10],well tolerated
same,inhibition of peripheral 11β‐HSD1 (suppression of urinary tetrahydrocortisol/tetrahydrocortisone ratios),[11],Near complete inhibition
same,maximum tolerated dose in humans,[12]; all trials,has not been established
same,serious adverse events attributed to drug,[12]; any trial,no serious adverse events
same,CSF : free plasma ratio,"[13]; 4 participants, single time point",0.33
same,urinary excretion of unchanged drug,[13]; SAD and MAD trials,< 5%
